# In a melting point compilation (Tetko et al.):
row,SMILES,melting point [°C]
1,"O=C1CC2C(CC(OC(=O)c3ccccc3)C2COC(c2ccccc2)(c2ccccc2)c2ccccc2)O1 (single isomer, unassigned; (-))",183 to 185
2,CCCCCCCCCCC(C)Br (stereo not drawn),-96
3,NC(=O)COc1cccc(Cl)c1,123 to 126
4,CC12CCC(O)C(C)(C)C1C(=O)C(=O)c1c(O)c(C(CO)CO)c(O)c(O)c12 (stereo not drawn),238 to 240
5,c1ccc(CNc2ccccn2)cc1,95
6,CC1(C2CCC3C4CCC5CC(O)CCC5(C)C4CCC32C)OCCO1 (stereo not drawn),174
7,c1ccc2c(c1)cc1c3ccccc3c3cccc4ccc2c1c43,234
8,O=[N+]([O-])/C=C/c1ccccc1,58
9,CC(C)(C)C(=O)Cl,-56
10,Clc1cccc(CBr)c1Cl,29 to 32
11,NC(=NO)c1ccccc1OC(F)(F)F,99 to 101
12,CN(c1c(F)c(F)c(C#N)c(F)c1F)[N+](=O)[O-],53
13,C=CN(C)C(C)=O,-36
14,NC(=O)Nc1ccc(Cl)cc1,206
15,CN(C)c1nc(=O)n(C2CCCCC2)c(=O)n1C,116
16,COc1cccc(CNC(=O)c2[nH]c3ccccc3c2CCO)c1,151
17,O=C(O)C(CCBr)(c1ccccc1)c1ccccc1,135 to 137
18,NCc1ccccc1Sc1ccccc1CO,97
19,CNC(=O)Oc1ccccc1C(C)C,94
20,COC(=O)c1c(C)c2c(c(C(=O)OC)c1C)CC2=O,117

row,SMILES,melting point [°C]
1,CCOC(=O)c1c(-c2ccccc2)[nH]c2cc3[nH]c(-c4ccccc4)c(C(=O)OCC)c3cc12,> 140
2,O=S(=O)(Cl)c1cc(Cl)c(O)c(Cl)c1,119
3,C#CCOc1ccc(Cc2ccc(O)cc2)cc1,60
4,CCC(=NNc1cccc(NN=C(CC)C(=O)O)c1)C(=O)O,190
5,O=c1[nH]cc(Cl)c(=O)[nH]1,300
6,O=C(Nc1ccccn1)C(F)(F)C(F)(F)C(F)(F)C(F)(F)C(F)(F)C(F)(F)C(F)(F)C(F)(F)F,66
7,CCCCCCCCOC(=O)CCCC,-42.3
8,COc1cccc(C2(O)CCCCC2CN(C)C)c1 (stereo not drawn),180
9,COC(=O)c1sc(SC)c(S(=O)(=O)C(C)C)c1Cl,141 to 144
10,CC=Cc1cc(OC)c(OC)cc1OC,62.5
11,CCC1(CC)C(=O)NC(=O)N(C)C1=O,155
12,CCCCCCCCCCCCCBr,6.2
13,CCCCOCOCCCC,-58.1
14,O=C1C=C(N2CC2)C(=O)C(N2CC2)=C1N1CC1,163
15,CC(=O)N[C@H]1C(O)O[C@H](CO)[C@@H](O)[C@@H]1O (stereo partly drawn),211
16,O=C1C(c2ccc(C3=[N+]([O-])c4cc([N+](=O)[O-])ccc4C3=O)cc2)=[N+]([O-])c2cc([N+](=O)[O-])ccc21,294
17,O=C1NC(=O)C(Cl)C(=O)N1,320
18,O=C(c1ccc(Br)cc1)c1[nH]c2c(c1O)C(c1ccc(Br)cc1)c1c(c3ccccc3oc1=O)O2 (stereo not drawn),230
19,CCOC(=O)CC(=O)CCl,-8
20,CC(C)=CCC(C#N)(CC=C(C)C)C(=O)O,70 to 71

row,SMILES,melting point [°C]
1,O=C(O)C(CCCc1ccccc1)c1ccccc1 (stereo not drawn),78
2,OC1(C#CC#CC2(O)CCCCC2)CCCCC1,175
3,N#Cc1cc(F)c(F)c(F)c1,46
4,CCCCCCCCCCCCC#CC#CCCCCCCCCC(=O)O,64
5,S=c1nnc(-c2ccccc2)c(Nc2ccc(Cl)cc2)[nH]1,314
6,CC12C=CC(=O)C=C1CCC1C3CC(O)C(O)(C(=O)CO)C3(C)CC(O)C12F (stereo not drawn),269
7,C=C1C(=O)C23C4CC5C(C)(C)CCC(OC(C)=O)C5(C)C2C(OC(C)=O)CC1(OC(C)=O)C3OC(C)(C)O4 (stereo not drawn),221
8,CC(COc1ccccc1)NC(C)C(O)c1ccc(O)cc1 (stereo not drawn),102
9,CN(C)C(=O)OC1N=C(c2ccccc2)c2cc(Cl)ccc2N(C)C1=O (stereo not drawn),174
10,CCCCCCCCCCC(C)CC (stereo not drawn),-38
11,COC(=O)c1ccccc1NC(=S)NNC(=O)C(=O)c1c[nH]c2ccccc12,283
12,FCOC(C(F)(F)F)C(F)(F)F,< 25
13,COC(C(=O)O)c1ccccc1 (racemic),68 to 72
14,ClC1=C(Cl)C2(Cl)C3C4OC4C(Cl)C3C1(Cl)C2(Cl)Cl (stereo not drawn),160
15,CNC(=O)Cc1ccccc1,55 to 59
16,CCCC(O)CCC=CC=CC#CC#CC=CCO (stereo not drawn),87
17,CC(C)=CCCC(C)=CCCC(C)=CCO,25
18,O=[N+]([O-])C(CO)(CO)CO,214
19,COC(=O)[C@@H](NC(=O)OCc1ccccc1)[C@@H](C)O,92 to 94
20,CCOC(=O)C(C)=P(c1ccccc1)(c1ccccc1)c1ccccc1,157 to 159

# Results, then the molecule that gave them:
row,melting point [°C],SMILES
1,300,Sc1nc2cccnc2s1
2,165,CN(C)c1ccc(N=c2cc(-c3ccccc3)sc(-c3ccccc3)c2)cc1
3,60,COC(=O)c1c(C)c(Br)c(OC)c(Br)c1OC
4,99,CC1CCC(C)(C(=O)CN2C(=O)c3ccccc3C2=O)C1(C)C (stereo not drawn)
5,48 to 50,Cc1sc(C2CCN(C(=O)OC(C)(C)C)CC2)nc1CC(=O)O
6,168 to 171,CC(=O)c1cc2c(cc1N)OCO2
7,300,Cn1cnc(N)c2ncnc1-2
8,115,O=Cc1cc([N+](=O)[O-])ccc1N1CCOCC1
9,72 to 74,CCOC(=O)c1cc(C(C)(C)C)nn1Cc1c(C)cc(C)cc1C
10,44,O=Cc1cccc(C(F)(F)F)c1Cl
11,138 to 140,NS(=O)(=O)C=Cc1ccccc1
12,68.5 to 70.5,O=C=Nc1ccc(OC2CCOCC2)nc1
13,94 to 96,COc1ccc([N+](=O)[O-])cc1Cl
14,240,Cc1ccsc1C=CC1=NCCCN1C
15,124,CCN(CC)CCNC(=O)c1cc(S(C)(=O)=O)ccc1OC
16,174 to 183,CC(=O)c1cc(Br)c(O)c(Br)c1
17,60 to 65,Brc1nc(Br)n(Cc2ccccc2)n1
18,218 to 220,O=C(O)C=Cc1ccc(-c2ccc(F)cc2F)o1
19,60,Clc1ccnc(Cl)n1
20,300,O=c1[nH]c(=O)c2cn[nH]c2[nH]1
21,155 to 160,COc1cc(N)c(C(=O)O)cc1OC

row,melting point [°C],SMILES
1,298,O=C(NN=Cc1ccc([N+](=O)[O-])o1)c1ccc(O)cc1
2,> 300,O=[N+]([O-])c1ccccc1N1CSc2nnc(-c3ccccc3)n2C1
3,180 to 182,O=C(O)c1cc(F)cc2c1OCOC2
4,181,CC(CC(=O)O)C1CCC2C3C=CC4CC(O)CCC4(C)C3CC(O)C12C (stereo not drawn)
5,110 to 112,O=c1c(Cl)c(Cl)cnn1Cc1ccccc1F
6,238 to 240,OCc1cnc(S)n1Cc1ccccc1
7,183,FC(F)(F)c1nn(CN2CCOCC2)c(=S)n1/N=C/c1ccc2c(c1)OCO2
8,92.5 to 95.5,CCOC(=O)c1c(-c2ccc(F)cc2)csc1N
9,155 to 158,Cc1cnnc2c1-c1nonc1CC2
10,101 to 102,Cc1nc(-c2ccc(C=O)cc2)cs1
11,207,NS(=O)(=O)c1ccc(Cl)c(S(N)(=O)=O)c1
12,227,CC1(C)C2CCC13CS(=O)(=O)N=C3C2 (stereo not drawn)
13,297,Nc1nnc(-c2ccccc2)c(Nc2ccc(Cl)cc2)n1
14,166,COc1ccc(N2C(=O)C3ON=C(C(=O)c4ccccc4)C3C2=O)cc1 (stereo not drawn)
15,63 to 64,Cn1c(C=O)cc2sccc21
16,150,O=C(O)C1Cc2cc3c(cc21)OCO3 (stereo not drawn)
17,281,CCOC(=O)c1nn(-c2ccc(C)cc2)c(C)c1C(=O)C1=NOC2C(=O)N(c3ccc(C(=O)O)cc3)C(=O)C12 (stereo not drawn)
18,168,Cc1ncccc1O
19,162 to 163,CC(C)CC1=CC(=Cc2ccc(-c3ccc([N+](=O)[O-])cc3)o2)C(=O)O1
20,139 to 141,NS(=O)(=O)c1ccc(Br)s1
21,74,COc1ccc(Br)c2c1C(=O)C2

row,melting point [°C],SMILES
1,183 to 185,COc1cc2c(cc1OC)C(c1ccc([N+](=O)[O-])cc1)N(C(C)=O)CC2 (stereo not drawn)
2,22.1,C1=CCC(c2ccncc2)CC1 (stereo not drawn)
3,138 to 143,O=Cc1ccc2cccnc2n1
4,193,O=C1CC(C(F)(F)F)=NN1c1ccccc1
5,0,O=COCC=Cc1ccccc1
6,170,CC1(C)C2CCC1(C)C(/N=C\c1ccc([N+](=O)[O-])cc1)C2/N=C/c1ccc([N+](=O)[O-])cc1 (stereo not drawn)
7,169,Cc1oc(S(=O)(=O)N(C)C)cc1C(=O)O
8,76 to 80,OCc1ccc(-n2cccn2)cc1
9,132,OC1OCC(Cc2ccc3c(c2)OCO3)C1Cc1ccc2c(c1)OCO2 (stereo not drawn)
10,191,COC(=O)C1=C(C)NC(C)=C(C(=O)OC)C1c1cccc(OC)c1O
11,122,Cc1cccc(C)c1NC(=O)c1cncc(Cl)n1
12,143,C=CCOc1c(Cc2cc(C(C)=O)c(O)c(C)c2OCC=C)cc(C(C)=O)c(O)c1C
13,167 to 169,CC1(C)CC(=O)c2cc(-c3ccccc3)n(-c3ccc(Cl)c(Cl)c3)c2C1
14,116,O=C1C=C(NCCCc2ccccc2)C(=O)c2ccccc21
15,26,COc1ccc(CCCO)cc1
16,136 to 137,Cc1cccc(NC(=O)c2nn(-c3ccccc3)nc2C)n1
17,121,O=C(O)c1cc(Br)cs1
18,42,CC(C)(C)c1ccc(N=C=S)cc1
19,63 to 64,Cc1c(Cl)cc([N+](=O)[O-])cc1Cl
20,124 to 125,OCc1ccc(-c2cccs2)nc1
21,300,O=C(O)C=Cc1ccc(C=CC(=O)O)cc1
